The values that follow are results of earlier work, collected in US20170035778A1, “FORMULATIONS AND USES FOR MICROPARTICLE DELIVERY OF METALLOPORPHYRINS” (The Board of Trustees of the Leland Stanford Junior …, priority 2015, published 2017).

For this data set the following is noted: SnMP within 24 h of birth in premature newborns.

Regarding tin mesoporphyrin [SnMP], the “reduction of the requirement for phototherapy compared with control subjects” value is recorded as “approximately 75%”.
